One may read the IC50 as the concentration at which inhibition is half-maximal. The low end stands for inhibition by little substance, the high end for a need for much substance.

From patent publication US12673946B2, “Pyrimidin-4(3H)-one derivatives as TRPV4 antagonists” (RaQualia Pharma Inc., priority 2020, dated 2026) come the findings set out here.

In this assay the target is T1, human TRPV4 (Homo sapiens, UniProt Q9HBA0).
T1 construct: host or cells: tetracycline-inducible Flp-In T-REx 293 cells
Briefly: Hypotonicity-induced Ca2+ influx (Fluo-4, FDSS). Type of assay: cell-based. The procedure, abridged: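 Flp-In T-REx 293 cells with tetracycline-induced human TRPV4, loaded with Fluo-4 for 60 min at 25 °C. Compound added 5 min before hypotonic mannitol/CaCl2 solution. Ca2+ signal recorded for 4.5 min on FDSS.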

[1] abbreviates: Flp-In T-REx 293 cells expressing human TRPV4, examples listed under heading 'Human IC50<50 nM'.
[2] abbreviates: Flp-In T-REx 293 cells stably expressing human TRPV4, compounds listed by potency bin (<10 nM Tables 96-1/96-2, <3 nM Table 97).

T1 sequence (Q9HBA0 whole entry): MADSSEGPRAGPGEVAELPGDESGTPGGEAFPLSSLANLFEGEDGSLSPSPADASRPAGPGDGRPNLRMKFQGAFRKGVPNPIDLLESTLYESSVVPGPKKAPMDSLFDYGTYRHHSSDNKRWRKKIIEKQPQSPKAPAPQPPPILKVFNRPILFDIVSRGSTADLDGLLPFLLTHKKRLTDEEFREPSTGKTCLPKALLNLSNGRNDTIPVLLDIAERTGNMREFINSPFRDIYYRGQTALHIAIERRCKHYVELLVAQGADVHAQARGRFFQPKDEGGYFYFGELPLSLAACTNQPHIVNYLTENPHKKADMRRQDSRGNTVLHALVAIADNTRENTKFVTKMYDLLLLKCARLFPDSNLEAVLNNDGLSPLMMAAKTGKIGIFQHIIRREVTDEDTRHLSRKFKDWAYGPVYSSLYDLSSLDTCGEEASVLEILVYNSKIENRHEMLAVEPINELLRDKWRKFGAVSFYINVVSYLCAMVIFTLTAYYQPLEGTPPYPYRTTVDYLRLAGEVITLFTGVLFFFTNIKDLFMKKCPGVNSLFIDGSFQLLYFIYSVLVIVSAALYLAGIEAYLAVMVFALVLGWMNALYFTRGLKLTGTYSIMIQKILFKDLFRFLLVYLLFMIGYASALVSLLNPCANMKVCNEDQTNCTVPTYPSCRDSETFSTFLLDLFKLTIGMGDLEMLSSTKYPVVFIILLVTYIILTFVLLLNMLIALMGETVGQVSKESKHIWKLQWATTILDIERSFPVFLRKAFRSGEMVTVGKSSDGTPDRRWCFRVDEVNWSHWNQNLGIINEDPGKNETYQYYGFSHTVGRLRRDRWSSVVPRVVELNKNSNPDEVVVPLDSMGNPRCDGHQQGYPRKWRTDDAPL

Take `CC1(C)CCC(c2cccc(C3(c4nc5c(c(=O)[nH]4)CN(C(=O)[C@H](O)c4cccc(C(F)(F)F)c4)CCC5)CC3)c2)CC1` [31-3]: the IC50 reads like this: under setting [1], under 50 nM; under setting [2], under 3 nM.
For `CC(c1cccc(C2(c3nc4c(c(=O)[nH]3)CN(C(=O)[C@H](O)c3cccc(C(F)(F)F)c3)CCC4)CC2)c1)C(F)(F)F` (stereo partly shown) [31-4], in that order: under 50 nM and under 3 nM.
For `O=C([C@H](O)c1cccc(C(F)(F)F)c1)N1CCCc2nc(C3(c4cccc(C5CCCC5)c4)CC3)[nH]c(=O)c2C1` [31-5] the same measures were under 50 nM and under 3 nM.
For `CC(C)Cc1cccc(C2(c3nc4c(c(=O)[nH]3)CN(C(=O)[C@H](O)c3cccc(C(F)(F)F)c3)CCC4)CC2)c1` [31-6] the same measures were under 50 nM and under 3 nM.
As for `O=C([C@H](O)c1cccc(C(F)(F)F)c1)N1CCCc2nc(C3(c4cccc(C5CCOCC5)c4)CC3)[nH]c(=O)c2C1` [31-7], the IC50 runs as follows: under setting [1], under 50 nM; under setting [2], under 10 nM.
For `CC(C)c1cccc(C2(c3nc4c(c(=O)[nH]3)CN(C(=O)[C@H](O)c3cccc(C(F)(F)F)c3)CCC4)CC2)c1` [31-8], in that order: under 50 nM and under 3 nM.
For `O=C(Cc1ccccc1)N1CCC(c2cccc(C3(c4nc5c(c(=O)[nH]4)CN(C(=O)[C@H](O)c4cccc(C(F)(F)F)c4)CCC5)CC3)c2)CC1` [31-9] the same measures were under 50 nM and under 10 nM.
For `O=C(c1ccccc1)N1CCC(c2cccc(C3(c4nc5c(c(=O)[nH]4)CN(C(=O)[C@H](O)c4cccc(C(F)(F)F)c4)CCC5)CC3)c2)CC1` [31-10] the same measures were under 50 nM and under 10 nM.
For the molecule `O=C(CCc1ccccc1)N1CCC(c2cccc(C3(c4nc5c(c(=O)[nH]4)CN(C(=O)[C@H](O)c4cccc(C(F)(F)F)c4)CCC5)CC3)c2)CC1` [31-11], the IC50 by setting is: under setting [1], under 50 nM; under setting [2], under 3 nM.
Turning to `CC(C)(C)CC(=O)N1CCC(c2cccc(C3(c4nc5c(c(=O)[nH]4)CN(C(=O)[C@H](O)c4cccc(C(F)(F)F)c4)CCC5)CC3)c2)CC1` [31-12], the concentration for half-maximal inhibition (IC50) reads like this: under setting [1], under 50 nM; under setting [2], under 10 nM.
For `CC(C)c1cccc(C2(c3nc4c(c(=O)[nH]3)CN(C(=O)Cc3cccc(-c5cccc(C(F)(F)F)c5)c3)CCC4)CC2)c1` [31-13], in that order: under 50 nM and under 10 nM.
For `O=C(Cc1cccc(-c2cccc(C(F)(F)F)c2)c1)N1CCCc2nc(C3(c4cccc(C5CCCCC5)c4)CC3)[nH]c(=O)c2C1` [31-14] the same measures were under 50 nM and under 10 nM.
`CC(C)c1cccc(C2(c3nc4c(c(=O)[nH]3)CN(C(=O)Cc3cccc(-c5cccc(Cl)c5)c3)CCC4)CC2)c1` [31-15]: the IC50 under setting [1] was under 50 nM and the IC50 under setting [2] was under 10 nM.
For `O=C(Cc1cccc(-c2cccc(Cl)c2)c1)N1CCCc2nc(C3(c4cccc(C5CCCCC5)c4)CC3)[nH]c(=O)c2C1` [31-16] the same measures were under 50 nM and under 10 nM.
For `CC(C)c1cc(C2(c3nc4c(c(=O)[nH]3)CN(C(=O)[C@H](O)c3cccc(C(F)(F)F)c3)CCC4)CC2)ccn1` [32-1], in that order: under 50 nM and under 10 nM.
In turn, `O=C([C@H](O)c1cccc(Cl)c1)N1CCc2nc(C3(c4cccc(-c5cccnc5)c4)CC3)[nH]c(=O)c2C1` [34-1] showed a half-maximal inhibitory concentration (IC50) under setting [1] of under 50 nM.
For `O=C([C@H](O)c1cccc(Cl)c1)N1CCc2nc(C3(c4cccc(-c5cnsc5)c4)CC3)[nH]c(=O)c2C1` [34-2], the IC50 was under 50 nM under setting [1] and under 10 nM under setting [2].
`O=C([C@H](O)c1cccc(C(F)(F)F)c1)N1CCc2nc(C3(c4cc(-c5ccccc5)cs4)CC3)[nH]c(=O)c2C1` [36-1]: the IC50 was under 50 nM under setting [1] and under 10 nM under setting [2].
In turn, `O=C([C@H](O)c1cccc(C(F)(F)F)c1)N1CCc2nc(C3(c4cc(-c5cccnc5)cs4)CC3)[nH]c(=O)c2C1` [36-2] displayed an IC50 under setting [1] of under 50 nM.
Turning to `O=C([C@H](O)c1cccc(C(F)(F)F)c1)N1CCc2nc(C3(c4cccc(-c5ccccc5)c4)CC3)[nH]c(=O)c2C1` [37-1], the half-maximal inhibitory concentration (IC50) reads like this: under setting [1], under 50 nM; under setting [2], under 3 nM.
For `O=C([C@H](O)c1cccc(C(F)(F)F)c1)N1CCc2nc(C3(c4cccc(-c5cccnc5)c4)CC3)[nH]c(=O)c2C1` [37-2] the same measures were under 50 nM and under 10 nM.
For `O=C([C@H](O)c1cccc(C(F)(F)F)c1)N1CCc2nc(C3(c4cccc(-c5cnsc5)c4)CC3)[nH]c(=O)c2C1` [37-3] the same measures were under 50 nM and under 3 nM.
For `O=C([C@H](O)c1cccc(C(F)(F)F)c1)N1CCc2nc(C3(c4cncc(-c5ccccc5)c4)CC3)[nH]c(=O)c2C1` [38-1], in that order: under 50 nM and under 3 nM.
As to `O=C([C@H](O)c1cccc(Cl)c1)N1CCCc2nc(C3(c4cc(-c5ccccc5)cs4)CC3)[nH]c(=O)c2C1` [39-1], the IC50 under setting [1] is under 50 nM and the IC50 under setting [2] was under 3 nM.
For `O=C([C@H](O)c1cccc(Cl)c1)N1CCCc2nc(C3(c4cc(-c5cnsc5)cs4)CC3)[nH]c(=O)c2C1` [39-2], in that order: under 50 nM and under 10 nM.
Under setting [1], `O=C([C@H](O)c1cccc(Cl)c1)N1CCCc2nc(C3(c4cc(-c5cccnc5)cs4)CC3)[nH]c(=O)c2C1` [39-3] gave an IC50 of under 50 nM.
As for `O=C([C@H](O)c1cccc(Cl)c1)N1CCCc2nc(C3(c4cccc(-c5ccccc5)c4)CC3)[nH]c(=O)c2C1` [40-1], the IC50 is under 50 nM under setting [1] and under 3 nM under setting [2].
As for `O=C([C@H](O)c1cccc(Cl)c1)N1CCCc2nc(C3(c4cccc(-c5cnsc5)c4)CC3)[nH]c(=O)c2C1` [40-2], the IC50 is under 50 nM under setting [1] and under 3 nM under setting [2].
For `O=C([C@H](O)c1cccc(Cl)c1)N1CCCc2nc(C3(c4cccc(-c5cccnc5)c4)CC3)[nH]c(=O)c2C1` [40-3] the same measures were under 50 nM and under 10 nM.
In the case of `C=C(C)c1cccc(C2(c3nc4c(c(=O)[nH]3)CN(C(=O)[C@H](O)c3cccc(Cl)c3)CCC4)CC2)c1` [40-4, (R)-6-(2-(3-chlorophenyl)-2-hydroxyacetyl)-2-(1-(3-(prop-1-en-2-yl)phenyl)cyclopropyl)-3,5,6,7,8,9-hexahydro-4H-pyrimido[5,4-c]azepin-4-one], the IC50 reads like this: under setting [1], under 50 nM; under setting [2], under 3 nM.
For `CC(C)(C)c1ccc(-c2cccc(C3(c4nc5c(c(=O)[nH]4)CN(C(=O)[C@H](O)c4cccc(Cl)c4)CCC5)CC3)c2)cc1` [40-5], in that order: under 50 nM and under 10 nM.
For `O=C([C@H](O)c1cccc(Cl)c1)N1CCCc2nc(C3(c4cccc(-c5cccc(Cl)c5)c4)CC3)[nH]c(=O)c2C1` [40-6] the same measures were under 50 nM and under 10 nM.
For `O=C([C@H](O)c1cccc(Cl)c1)N1CCCc2nc(C3(c4cccc(-c5ccc(Cl)cc5)c4)CC3)[nH]c(=O)c2C1` [40-7], in that order: under 50 nM and under 10 nM.
`O=C([C@H](O)c1cccc(Cl)c1)N1CCCc2nc(C3(c4cccc(-c5ccc(C(F)(F)F)cc5)c4)CC3)[nH]c(=O)c2C1` [40-8]: the IC50 is under 50 nM under setting [1] and under 10 nM under setting [2].
For `O=C([C@H](O)c1cccc(Cl)c1)N1CCCc2nc(C3(c4cccc(-c5ccc(F)cc5)c4)CC3)[nH]c(=O)c2C1` [40-9], in that order: under 50 nM and under 3 nM.
